Broadly, the Ki is the dissociation constant of the complex between target and ligand, obtained from inhibition or displacement. Low values mean higher affinity, high ones lower affinity.

The target in this assay is Beta-lactamase (Escherichia coli K-12, UniProt P00811). Put plainly: Binding affinity towards AmpC beta-lactamase binding site from Escherichia coli.
Beta-lactamase, sequence (P00811 whole entry): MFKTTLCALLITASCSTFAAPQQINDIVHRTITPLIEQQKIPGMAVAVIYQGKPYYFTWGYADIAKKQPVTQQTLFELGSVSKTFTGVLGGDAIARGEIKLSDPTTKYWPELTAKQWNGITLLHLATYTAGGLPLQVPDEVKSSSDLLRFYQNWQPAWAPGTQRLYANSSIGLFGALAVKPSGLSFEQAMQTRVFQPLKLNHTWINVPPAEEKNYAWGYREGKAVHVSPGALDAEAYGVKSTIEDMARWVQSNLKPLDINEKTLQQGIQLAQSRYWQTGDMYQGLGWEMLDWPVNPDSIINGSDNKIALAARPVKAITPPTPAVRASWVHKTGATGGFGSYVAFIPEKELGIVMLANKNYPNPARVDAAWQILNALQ

Regarding `CC(C)(O/N=C(/C(=O)NCB(O)O)c1csc(N)n1)C(=O)O`, the Ki was 0.02 µM.

Source of the values: ChEMBL document CHEMBL1135514, “Structure-based approach for binding site identification on AmpC beta-lactamase” (J Med Chem, 2002).
